Patent US20250215039A1, “NUCLEOSIDES FOR TREATING CANCER” (PRIMEFOUR THERAPEUTICS, INC., priority 2022, published 2025)
Where two headings read alike, the source gives them in different places.

Tested on: cancer cell lines
Assay: Cancer cell proliferation activity (CellTiterGlo, 72 h)
Format: cell-based
Settings: 72 h, 72 h, read-out: IC50
Procedure, shortened: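 Cells seeded overnight at 37 °C, then dosed with compound at 0.1% final DMSO and incubated 72 h at 37 °C (5% or 10% CO2 by medium).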

CC(C)C[C@]1(CO)O[C@@H](n2cnc3c(N)nc(F)nc32)C[C@@H]1O [Cpd. No. 133, (2R,3S,5R)-5-(6-amino-2-fluoro-9H-purin-9-yl)-2-(hydroxymethyl)-2-isobutyltetrahydrofuran-3-ol]
IC50 (5637 cell line (bladder)): 4.09 µM | IC50 (CLS439 cell line (bladder)): > 50 µM | IC50 (HS729 cell line (muscle)): 8.57 µM | IC50 (HSS78T cell line): 3.71 µM | IC50 (JAR cell line (placenta)): 3.66 µM | IC50 (SKMELS cell line): 4.92 µM | IC50 (Homo sapiens, 22Rv1, 72 h, 22RV1 cell line (prostate)): > 50 µM | IC50 (Homo sapiens, 786-0, 72 h, 786O cell line (kidney)): 2.59 µM | IC50 (Homo sapiens, A204, 72 h, A204 cell line (muscle)): 4.91 µM | IC50 (Homo sapiens, A549, 72 h, A549 cell line): 4.96 µM | IC50 (Homo sapiens, A673, 72 h, A673 cell line (bone)): > 50 µM | IC50 (Homo sapiens, A2780, 72 h, A2780 cell line (ovary)): 4.54 µM | IC50 (Homo sapiens, A-375, 72 h, A375 cell line (skin)): 3.67 µM | IC50 (Homo sapiens, A-431, 72 h, A431 cell line (skin)): 2.29 µM | IC50 (Homo sapiens, ACHN, ACHN cell line (kidney)): > 50 µM | IC50 (Homo sapiens, ASPC1, 72 h, ASPC1 cell line (pancreas)): 2.99 µM | IC50 (Homo sapiens, BT-20, 72 h, BT20 cell line (breast)): 4.14 µM | IC50 (Homo sapiens, BXPC-3, 72 h, BXPC3 cell line (pancreas)): 7.13 µM | IC50 (Homo sapiens, C-33-A, C33A cell line (cervical)): 4.28 µM | IC50 (Homo sapiens, CAKI-1, 72 h, CAKI1 cell line (kidney)): 0.41 µM | IC50 (Homo sapiens, COLO 205, 72 h, COLO205 cell line (colon)): 5.86 µM | IC50 (Homo sapiens, COLO-678, 72 h, COLO678 cell line (colon)): 9.54 µM | IC50 (Homo sapiens, Ca-Ski, CASKI cell line (cervical)): 2.33 µM | IC50 (Homo sapiens, Caco-2, 72 h, CACO2 cell line (colon)): 5.32 µM | IC50 (Homo sapiens, Calu-6, 72 h, CALU6 cell line (lung)): 3.07 µM | IC50 (Homo sapiens, DLD-1, 72 h, DLD1 cell line (colon)): > 50 µM | IC50 (Homo sapiens, DU-145, 72 h, DU145 cell line (prostate)): 3.3 µM | IC50 (Homo sapiens, EFO-21, 72 h, EFO21 cell line (ovary)): 3.75 µM | IC50 (Homo sapiens, EJ-28, 72 h, EJ28 cell line (bladder)): 5.11 µM | IC50 (Homo sapiens, Granta-519, 72 h, GRANTA-519 cell line (hematological)): > 50 µM | IC50 (Homo sapiens, HCT-15, 72 h, HCT15 cell line (colon)): > 50 µM | IC50 (Homo sapiens, HCT-116, 72 h, HCT116 cell line (colon)): 3.96 µM | IC50 (Homo sapiens, HEK293, 72 h, HEK293 cell line (kidney)): 5.3 µM | IC50 (Homo sapiens, HL-60, 72 h, HL-60 cell line (hematological)): 5.42 µM | IC50 (Homo sapiens, HT-29, 72 h, HT29 cell line (colon)): 2.16 µM | IC50 (Homo sapiens, HT-1080, 72 h, HT1080 cell line (connective tissue)): > 50 µM | IC50 (Homo sapiens, HeLa, HELA cell line (cervical)): 2.73 µM | IC50 (Homo sapiens, HepG2, 72 h, HEPG2 cell line (liver)): 3.32 µM | IC50 (Homo sapiens, IGROV-1, 72 h, IGROV1 cell line (ovary)): 2.72 µM | IC50 (Homo sapiens, IMR-90, 72 h, IMR.90 cell line): 2.76 µM | IC50 (Homo sapiens, J82, 72 h, J82 cell line (bladder)): 3.18 µM | IC50 (Homo sapiens, JEG-3, 72 h, JEG3 cell line (placenta)): 3.36 µM | IC50 (Homo sapiens, JIMT-1, 72 h, JIMT1 cell line (breast)): 1.43 µM | IC50 (Homo sapiens, K562, 72 h, K-562 cell line (hematological)): > 50 µM | IC50 (Homo sapiens, Kasumi 1, 72 h, KASUMI-1 cell line (hematological)): 1.54 µM | IC50 (Homo sapiens, L-363, 72 h, L-363 cell line (hematological)): 3.16 µM | IC50 (Homo sapiens, LoVo, LOVO cell line (colon)): 3.61 µM | IC50 (Homo sapiens, MCF7, 72 h, MCF7 cell line (breast)): > 50 µM | IC50 (Homo sapiens, MDA-MB-231, 72 h, MDAMB231 cell line (breast)): > 50 µM | IC50 (Homo sapiens, MDA-MB-435, 72 h, MDAMB435 cell line (skin)): > 50 µM | IC50 (Homo sapiens, MDA-MB-436, 72 h, MDAMB436 cell line (breast)): 3.36 µM | IC50 (Homo sapiens, MDA-MB-468, 72 h, MDAMB468 cell line (breast)): 2.58 µM | IC50 (Homo sapiens, MG-63, 72 h, MG63 cell line (bone)): > 50 µM | IC50 (Homo sapiens, MHH-ES-1, 72 h, MHHES1 cell line (bone)): 3.07 µM | IC50 (Homo sapiens, MIA PaCa-2, 72 h, MIAPACA2 cell line (pancreas)): > 50 µM | IC50 (Homo sapiens, MINO, MINO cell line (hematological)): 2.52 µM | IC50 (Homo sapiens, MV4-11, 72 h, MV4-11 cell line (hematological)): 3.35 µM | IC50 (Homo sapiens, NCI-H23, 72 h, NCI-H23 cell line (lung)): 3.33 µM | IC50 (Homo sapiens, NCI-H82, 72 h, NCIH82 cell line (lung)): 3.4 µM | IC50 (Homo sapiens, NCI-H292, 72 h, NCIH292 cell line (lung)): > 50 µM | IC50 (Homo sapiens, NCI-H460, 72 h, NCIH460 cell line (lung)): 5.43 µM | IC50 (Homo sapiens, OVCAR-3, 72 h, OVCAR3 cell line (ovary)): 1.92 µM | IC50 (Homo sapiens, OVCAR-4, 72 h, OVCAR4 cell line (ovary)): 4.25 µM | IC50 (Homo sapiens, PANC-1, 72 h, PANC1 cell line (pancreas)): > 50 µM | IC50 (Homo sapiens, PC-3, 72 h, PC3 cell line (prostate)): 3.83 µM | IC50 (Homo sapiens, PLC-PRF-5, 72 h, PLCPRF5 cell line (liver)): > 50 µM | IC50 (Homo sapiens, Panc1005, 72 h, PANC1005 cell line (pancreas)): 2.98 µM | IC50 (Homo sapiens, RD, RD cell line (muscle)): 4.61 µM | IC50 (Homo sapiens, Ramos, RAMOS cell line (hematological)): 3.68 µM | IC50 (Homo sapiens, SAOS-2, 72 h, SAOS2 cell line (bone)): 4.32 µM | IC50 (Homo sapiens, SF-268, 72 h, SF268 cell line (brain)): > 50 µM | IC50 (Homo sapiens, SF-295, 72 h, SF295 cell line (brain)): > 50 µM | IC50 (Homo sapiens, SK-BR-3, 72 h, SKBR3 cell line (breast)): 1.09 µM | IC50 (Homo sapiens, SK-HEP1, 72 h, SKHEP1 cell line (liver)): 5.13 µM | IC50 (Homo sapiens, SK-LMS-1, 72 h, SKLMS1 cell line (uterus)): 4.34 µM | IC50 (Homo sapiens, SK-MEL-28, 72 h, SKMEL28 cell line (skin)): 3.69 µM | IC50 (Homo sapiens, SK-N-AS, SKNAS cell line (brain)): 2.78 µM | IC50 (Homo sapiens, SK-N-SH, SKNSH cell line (brain)): 2.65 µM | IC50 (Homo sapiens, SK-OV-3, 72 h, SKOV3 cell line (ovary)): 3.01 µM | IC50 (Homo sapiens, SNB-75, 72 h, SNB75 cell line (brain)): 9.06 µM | IC50 (Homo sapiens, SU-DHL10, 72 h, SU-DHL-10 cell line (hematological)): 4.84 µM | IC50 (Homo sapiens, SU-DHL-6, 72 h, SU-DHL-6 cell line (hematological)): 3.29 µM | IC50 (Homo sapiens, SW-620, 72 h, SW620 cell line (colon)): 3.44 µM | IC50 (Homo sapiens, T-24, 72 h, T24 cell line (bladder)): 3.9 µM | IC50 (Homo sapiens, TE-671, 72 h, TE671 cell line (muscle)): > 50 µM | IC50 (Homo sapiens, THP-1, 72 h, THP-1 cell line (hematological)): > 50 µM | IC50 (Homo sapiens, U2OS, U2OS cell line (bone)): 2.64 µM | IC50 (Homo sapiens, U-87 MG, U87MG cell line (brain)): > 50 µM | IC50 (Homo sapiens, UMUC3, 72 h, UMUC3 cell line (bladder)): > 50 µM | IC50 (Homo sapiens, UO-31, 72 h, UO31 cell line (kidney)): 2.15 µM | IC50 (Homo sapiens, WSU-NHL, WSU-NHL cell line (hematological)): 3.41 µM | IC50 (MT-3, 72 h, MT3 cell line (breast)): 2.87 µM | IC50 (NCI-H358M, NCIH358M cell line (lung)): 2.68 µM | IC50 (PBMC, PBMC (hematological)): > 50 µM | IC50 (RD-ES, RDES cell line (bone)): 3.07 µM
